Experimental data: patent US20100273656A1, “COMPOSITION AND METHOD FOR SELECTIVE HERBICIDE” (priority 2002, published 2010)

What was measured:
dandelions [1] = experiment: Example 2 field test of FeEDDS and FeHEDTA at pH 3 and 7, dandelion; type: in vivo, Taraxacum officinale
Description: (§1) The following non-limiting examples serve to further describe the invention. Unless otherwise specified, all of the iron solutions were made using the same molar concentration of iron ion as chelating agent. All of the outside tests were done on areas of mixed grass and dandelions that were at least 2 months old. For the greenhouse tests, dandelions were grown in a commercial greenhouse mix, using supplemental lighting and heating. Each plant was grown in a 2¼ inch pot to a minimum diameter of 20 cm. All of the solutions were sprayed onto the plants at a rate of 100 ml/m^2. The ferrous sulfate formulations that were used in examples 1, 2, 8 and 9 contained 1% iron (180 mM), 18 mM EDTA, 1% citric acid and 0.5% urea. In all of the examples, the amount of iron is identified in brackets as the percent iron on a weight basis.
(§2) All plant damage was assessed using a qualitative rating scale from 0 to 9.
The FeEDDS and FeHEDTA solutions contained 0.2% Fe^+3 (35.8 mM). The ferrous sulfate contained 1% Fe^+2 (179.1 mM). The solutions were sprayed at a rate of 0.1 L/m^2 onto 2 plots of 0.5 m^2 of mixed grass and dandelions. Observations were made 4 days after spraying.

dandelion = experiment: Example 21 Fe chelates with Killex, dandelion; type: in vivo, Taraxacum officinale; settings: A29 = 29 days after treatment
Description: (§3) Plants were fertilized with an all purpose water-soluble fertilizer mix of 20-20-20 (N-P-K; Plant-Prod®) as needed. All broadleaf weeds were grown individually in a 2¼-inch pot until they were a suitable size for herbicide tests (actual weed size is reported in examples below). Perennial ryegrass was also grown in 2¼-inch pots, however many grass seeds were sown in the pot to simulate a small section of turf. Grass plants were continually trimmed to a height of 4 cm, simulating that of a homeowner's lawn. For field tests, plots ¼ m^2 in size were marked out in areas containing the targeted broadleaf weed species growing in turf grass. Plots were continually mowed to simulate a homeowner's lawn. […] In all of the examples, the amounts of the various herbicide components are identified as a percent on a weight basis.
(§4) Killex® (Scotts Canada, Ltd., Ontario, Canada) is a commonly used selective lawn herbicide and was used as the commercial herbicide for herbicide combinations. The labeled dilution and application rates for Killex® are 6 ml into 1 L of solution (0.6%) applied at 200 ml/m^2.
(§5) All visual plant damage assessments were made using a quantitative rating scale; percent control relative to the untreated check (0=no effect; 100=plant death).
Materials and Methods: This trial was conducted in the greenhouse. […] Phytotoxicity (%) was assessed 29 days after treatment (A29).

perennial ryegrass [2] = experiment: Example 18 FeHEDTA with Killex, perennial ryegrass; type: in vivo
Description: as §3, §4, §5
Materials and Methods: This trial was conducted in the greenhouse. Nine pots of white clover and 10 pots of perennial ryegrass were selected for each treatment. Herbicide solutions were prepared using deionized water. The treatments were applied using a hand-trigger sprayer at 200 ml/m^2. All treatments were applied once. Phytotoxicity (%) was assessed 4, 7, and 14 days after application (A4, A7, and A14).

[3] = test system: turf bentgrass (Agrostis sp.); experiment: Example 11 field test, blackening of bentgrass leaf tips; type: in vivo
Description: The product was diluted 6 ml into 1 L of water solution and applied at rate of 200 ml/m^2, as per label instructions.
This test investigated the effect of FeHEDTA and a mixture of FeEDDS and FeMGDA on daisy (Bellis perennis), dandelion (Taraxacum officinale) and a turf bentgrass (Agrostis sp.). The chelating agents were used at one and a half times the molar amount of iron. […] The commercially prepared FeHEDTA product from the Monterey Chemical Company (CA, USA) was used as a standard. […] The solutions were made from NaEDDS (Octaquest E30, Octel) and NaMGDA (Trilon M liquid, BASF, Germany). Ammonium sulfate was added at a concentration of 1%. Killex (Solaris ON, Canada) was diluted and applied as per label instructions of 6 ml/L applied at 200 ml/m^2.
The daisy (0.25 m^2) and dandelion (0.5 m^2) test plots were in different areas of the bentgrass field. The dandelions were large, averaging 30 cm in diameter. The daisy patches were between 10 and 20 cm in diameter. The plants were sprayed weekly 4 times.

dandelions [4] = experiment: Example 6 various Fe chelates, dandelion phytotoxicity; type: in vivo, Taraxacum officinale
Description: as §1, §2
This test compared EDG (ethanol diglycine) and EDDS at 0.4% Fe+3 (71.6 mM), with HEDTA 0.2% Fe+3 (35.8 mM). FeEDDS and FeEDG were made with 100% excess chelating agent. FeHEDTA was made with 10% excess chelating agent. The solutions were sprayed onto greenhouse grown dandelions. The plants were resprayed after 7 days.

[5] = test system: chickweed scarlet pimpernel (Anagallis arvensis); experiment: Example 12 FeHEDTA field test, chickweed scarlet pimpernel; type: in vivo; settings: for Survival of Chickweed Plants (%): day 7/day 0
Description: This test evaluated FeHEDTA with 0.15% and 0.2% Fe for controlling the chickweed scarlet pimpernel (Anagallis arvensis) and dandelion (Taraxacum officinale). The solution contained 1.3 times the molar amount of chelating agent as iron. Field areas of well established chickweed and dandelion (0.5 m^2) were sprayed at a rate of 100 ml/m^2.

perennial ryegrass [6] = experiment: Example 19 FeHEDTA with Killex at reduced rates, perennial ryegrass; type: in vivo; settings: Killex ® 0%, 7 days after application
Description: as §3, §4, §5
Materials and Methods: This trial was conducted in the greenhouse. Ten broadleaf plantain plants and 5 pots of perennial ryegrass were selected for each treatment. Herbicide solutions were prepared using deionized water. The treatments were applied using a hand-trigger sprayer at 200 ml/m^2. All treatments were applied once. Phytotoxicity (%) was assessed 7 days after application (A7).

In the case of `O=C([O-])CN(CCO)CCN(CC(=O)[O-])CC(=O)[O-].[Fe+3]` [FeHEDTA], the “Dandelion Damage (0 to 9)” value (dandelions [1]; solution pH 2.6-3.0, 0.1 L/m^2, 4 days after spraying) is reported as 7.0 0 to 9, the “Dandelion Damage (0 to 9)” value (dandelions [1]; solution pH 7.0-7.1, 0.1 L/m^2, 4 days after spraying) is reported as 7.5 0 to 9 and the “Phytotoxicity (%) against dandelion” value (dandelion) is reported as 24%. For the same compound, the “Phytotoxicity (%) on perennial ryegrass” value (perennial ryegrass [2]; A4) was 2%, the “Phytotoxicity (%) on perennial ryegrass” value (perennial ryegrass [2]; A7) was 1% and the “Phytotoxicity (%) on perennial ryegrass” value (perennial ryegrass [2]; A14) was 2%. The “Blackening of Bentgrass (Agrostis) Leaf Tips (0 to 9)” value (shortened to “Blackening of Bentgrass”) ([3]; day 1) was 0, the “Blackening of Bentgrass” value ([3]; day 6) was 0 and the “Blackening of Bentgrass” value ([3]; day 9) was 0. The “Blackening of Bentgrass” value ([3]; day 16) was 2, the “Blackening of Bentgrass” value ([3]; day 21) was 0.5 0 to 9 and the “Blackening of Bentgrass” value ([3]; day 23) was 0. The “Blackening of Bentgrass” value ([3]; day 30) was 0, the “Dead Plants (#/10)” value (dandelions [4]; 7 + 5 days after spraying) was 3 #/10 and the “Plant Damage (0 to 9)” value (dandelions [4]; 7 + 5 days after spraying (resprayed after 7 days)) was 8.1 0 to 9. For the same compound, the “Plant Damage (0 to 9)” value (dandelions [4]; 7 days after spraying) was 1.3 0 to 9, the “Chickweed Plants (#/0.5 m^2)” value ([5]; 7 days after spraying, listed as FeHEDTA (0.15% Fe)) was 8 #/0.5 m^2 and the “Chickweed Plants (#/0.5 m^2)” value ([5]; 7 days after spraying, listed as FeHEDTA (0.20% Fe)) was 4 #/0.5 m^2. For the same compound, the “numbers of chickweed plants, in words” value ([5]; Example 12, text) was “significantly reduced”, the “Chickweed Plants (#/0.5 m^2)” value ([5]; day 0, listed as FeHEDTA (0.15% Fe)) was 15 #/0.5 m^2 and the “Chickweed Plants (#/0.5 m^2)” value ([5]; day 0, listed as FeHEDTA (0.20% Fe)) was 25 #/0.5 m^2. For the same compound, the “Survival of Chickweed Plants (%)” value ([5]; listed as FeHEDTA (0.15% Fe)) was 53%, the “Survival of Chickweed Plants (%)” value ([5]; listed as FeHEDTA (0.20% Fe)) was 16% and the “A7 Phytotoxicity (%) against perennial ryegrass” value (“A7 Phytotoxicity (%)” for short) (perennial ryegrass [6]; listed as FeHEDTA 0.1% Fe) was 1%. The “A7 Phytotoxicity (%)” value (perennial ryegrass [6]; listed as FeHEDTA 0.2% Fe) was 1% and the “A7 Phytotoxicity (%)” value (perennial ryegrass [6]; listed as FeHEDTA 0.4% Fe) was 2%.
